From US10597388B2, “Pyridazinone herbicides” (FMC CORPORATION, priority 2014, dated 2020)

Columns and labels:
Test in all cases: Test D controlled growth environment herbicide test, pre- and postemergence
Assay type in all cases: in vivo
[1] = tested on: chickweed (common chickweed, Stellaria media)
Procedure, shortened: (§1)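 Species sown in silt loam and sprayed preemergence, or grown in peat-based medium to 2–18 cm (1- to 4-leaf stage) and sprayed postemergence, with compounds in non-phytotoxic solvent plus surfactant. Visual injury scored versus controls after 14–21 d in a controlled environment, 0 (no effect) to 100 (complete control).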

[2] = tested on: canarygrass (Phalaris minor)
Procedure, shortened: as §1

[3] = tested on: radish, wild (wild radish, Raphanus raphanistrum)
Procedure, shortened: as §1

[4] = tested on: field poppy (Papaver rhoeas)
Procedure, shortened: as §1

[5] = tested on: wheat, winter (winter wheat, Triticum aestivum)
Procedure, shortened: as §1

[6] = tested on: barley, spring (spring barley, Hordeum vulgare)
Procedure, shortened: as §1

[7] = tested on: lambsquarters (Chenopodium album)
Procedure, shortened: as §1

[8] = tested on: barley, winter (winter barley, Hordeum vulgare)
Procedure, shortened: as §1

[9] = tested on: wheat, spring (spring wheat, Triticum aestivum)
Procedure, shortened: as §1

[10] = tested on: field violet (Viola arvensis)
Procedure, shortened: as §1

[11] = tested on: oat, wild (wild oat, Avena fatua)
Procedure, shortened: as §1

[12] = tested on: bluegrass (annual bluegrass, Poa annua)
Procedure, shortened: as §1

[13] = Postemergence, 31 g ai/ha, scale 0 to 100 (0 no effect, 100 complete control)
[14] = Postemergence, 125 g ai/ha, visual rating on scale 0 (no effect) to 100 (complete control), 14 to 21 d
[15] = Postemergence, 250 g ai/ha, scale 0 to 100 (0 no effect, 100 complete control)
[16] = Preemergence, 62 g ai/ha, scale 0 to 100 (0 no effect, 100 complete control)
[17] = Preemergence, 125 g ai/ha, scale 0 to 100 (0 no effect, 100 complete control)
[18] = Preemergence, 250 g ai/ha, scale 0 to 100, 0 no effect, 100 complete control
[19] = postemergence, 62 g ai/ha, scale 0 to 100, 0 no effect, 100 complete control

## Cc1cc(C)c2sc(C)c(-c3c(O)c(C)nn(C)c3=O)c2c1 [Compound 2, 5-hydroxy-2,6-dimethyl-4-(2,5,7-trimethylbenzo[b]thien-3-yl)-3(2H)-pyridazinone]
[1]; [13]
  Chickweed plant response rating: 85
[1]; [14]
  Plant response rating, Chickweed: 100
[1]; [15]
  Plant response rating, Chickweed: 100
[1]; Preemergence, 31 g ai/ha
  Plant response rating (scale of 0 to 100), Chickweed: 90
[1]; [16]
  Plant response rating, Chickweed: 100
[1]; [17]
  Plant response rating, Chickweed: 100
[1]; [18]
  Plant response rating, Chickweed: 100
[1]; [19]
  Plant response rating, Chickweed: 95
[2]; [13]
  Canarygrass plant response rating: 25
[2]; [14]
  Plant response rating, Canarygrass: 55
[2]; [15]
  Plant response rating, Canarygrass: 75
[2]; Preemergence, 31 g ai/ha
  Plant response rating (scale of 0 to 100), Canarygrass: 40
[2]; [16]
  Plant response rating, Canarygrass: 60
[2]; [17]
  Plant response rating, Canarygrass: 85
[2]; [18]
  Plant response rating, Canarygrass: 90
[2]; [19]
  Plant response rating, Canarygrass: 40
[3]; [13]
  Radish, Wild plant response rating: 25
[3]; [14]
  Plant response rating, Radish, Wild: 65
[3]; [15]
  Plant response rating, Radish, Wild: 60
[3]; Preemergence, 31 g ai/ha
  Plant response rating (scale of 0 to 100), Radish, Wild: 0
[3]; [16]
  Plant response rating, Radish, Wild: 5
[3]; [17]
  Plant response rating, Radish, Wild: 15
[3]; [18]
  Plant response rating, Radish, Wild: 100
[3]; [19]
  Plant response rating, Radish, Wild: 55
[4]; [13]
  Field Poppy plant response rating: 75
[4]; [14]
  Plant response rating, Field Poppy: 100
[4]; [15]
  Plant response rating, Field Poppy: 100
[4]; Preemergence, 31 g ai/ha
  Plant response rating (scale of 0 to 100), Field Poppy: 95
[4]; [16]
  Plant response rating, Field Poppy: 95
[4]; [17]
  Plant response rating, Field Poppy: 95
[4]; [18]
  Plant response rating, Field Poppy: 100
[4]; [19]
  Plant response rating, Field Poppy: 95
[5]; [13]
  Wheat, Winter plant response rating: 0
[5]; [14]
  Plant response rating, Wheat, Winter: 5
[5]; [15]
  Plant response rating, Wheat, Winter: 10
[5]; Preemergence, 31 g ai/ha
  Plant response rating (scale of 0 to 100), Wheat, Winter: 0
[5]; [16]
  Plant response rating, Wheat, Winter: 0
[5]; [17]
  Plant response rating, Wheat, Winter: 0
[5]; [18]
  Plant response rating, Wheat, Winter: 5
[5]; [19]
  Plant response rating, Wheat, Winter: 0
[6]; [13]
  Plant response rating, Barley, Spring: 0
[6]; [14]
  Plant response rating, Barley, Spring: 5
[6]; [15]
  Plant response rating, Barley, Spring: 5
[6]; Preemergence, 31 g ai/ha
  Plant response rating (scale of 0 to 100), Barley, Spring: 0
[6]; [16]
  Plant response rating, Barley, Spring: 0
[6]; [17]
  Plant response rating, Barley, Spring: 0
[6]; [18]
  Barley, Spring plant response rating: 0
[6]; [19]
  Plant response rating, Barley, Spring: 0
[7]; [13]
  Lambsquarters plant response rating: 90
[7]; [14]
  Plant response rating, Lambsquarters: 95
[7]; [15]
  Plant response rating, Lambsquarters: 100
[7]; Preemergence, 31 g ai/ha
  Plant response rating (scale of 0 to 100), Lambsquarters: 15
[7]; [16]
  Plant response rating, Lambsquarters: 60
[7]; [17]
  Plant response rating, Lambsquarters: 100
[7]; [18]
  Plant response rating, Lambsquarters: 100
[7]; [19]
  Plant response rating, Lambsquarters: 90
[8]; [13]
  Plant response rating, Barley, Winter: 10
[8]; [14]
  Plant response rating, Barley, Winter: 15
[8]; [15]
  Plant response rating, Barley, Winter: 10
[8]; Preemergence, 31 g ai/ha
  Plant response rating (scale of 0 to 100), Barley, Winter: 0
[8]; [16]
  Plant response rating, Barley, Winter: 0
[8]; [17]
  Plant response rating, Barley, Winter: 0
[8]; [18]
  Barley, Winter plant response rating: 0
[8]; [19]
  Plant response rating, Barley, Winter: 10
[9]; [13]
  Wheat, Spring plant response rating: 0
[9]; [14]
  Plant response rating, Wheat, Spring: 10
[9]; [15]
  Plant response rating, Wheat, Spring: 25
[9]; Preemergence, 31 g ai/ha
  Plant response rating (scale of 0 to 100), Wheat, Spring: 0
[9]; [16]
  Plant response rating, Wheat, Spring: 0
[9]; [17]
  Plant response rating, Wheat, Spring: 5
[9]; [18]
  Plant response rating, Wheat, Spring: 10
[9]; [19]
  Plant response rating, Wheat, Spring: 0
[10]; [13]
  Field Violet plant response rating: 60
[10]; [14]
  Plant response rating, Field Violet: 75
[10]; [15]
  Plant response rating, Field Violet: 80
[10]; Preemergence, 31 g ai/ha
  Plant response rating (scale of 0 to 100), Field Violet: 95
[10]; [16]
  Plant response rating, Field Violet: 100
[10]; [17]
  Plant response rating, Field Violet: 100
[10]; [18]
  Plant response rating, Field Violet: 100
[10]; [19]
  Plant response rating, Field Violet: 85
[11]; [13]
  Oat, Wild plant response rating: 55
[11]; [14]
  Plant response rating, Oat, Wild: 90
[11]; [15]
  Plant response rating, Oat, Wild: 100
[11]; Preemergence, 31 g ai/ha
  Plant response rating (scale of 0 to 100), Oat, Wild: 80
[11]; [16]
  Plant response rating, Oat, Wild: 90
[11]; [17]
  Plant response rating, Oat, Wild: 95
[11]; [18]
  Plant response rating, Oat, Wild: 100
[11]; [19]
  Plant response rating, Oat, Wild: 80
[12]; [13]
  Bluegrass plant response rating: 5
[12]; [14]
  Plant response rating, Bluegrass: 5
[12]; [15]
  Plant response rating, Bluegrass: 15
[12]; Preemergence, 31 g ai/ha
  Plant response rating (scale of 0 to 100), Bluegrass: 0
[12]; [16]
  Plant response rating, Bluegrass: 15
[12]; [17]
  Plant response rating, Bluegrass: 30
[12]; [18]
  Bluegrass plant response rating: 50
[12]; [19]
  Plant response rating, Bluegrass: 10
